# Measurements: patent publication EP2050458A1, “IL24 for inducing hyperproliferative or autoimmune cell death” (INSTITUT NATIONAL DE LA SANTE ET DE LA RECHERCHE MEDICALE …, priority 2007, dated 2009)
# Where a SMILES comes first, the peptide text is derived from it. The star is where a group is joined. Cbz = O=C(OCc1ccccc1)*; CH2F = FC*
# Key:
# Assay type in all cases: cell-based, human
# [1] = tested on: CLL B-cells; assay: Cell cycle analysis by Propidium Iodide staining and FACS; details: inhibitor added with IL24 to cells cultured overnight with IL2 (IL2+IL24+inhibitor); vs 3.36 ± 1.3% without inhibitor
# Protocol: For apoptosis studies, cells were stained either with the Apo 2.7-PE mAb (Beckman-Coulter, Villepinte, France) on ice for 15 min, washed and resuspended on 300 µl of PBS 1X supplemented with 0,1% BSA or with the Annexin V-FITC apoptosis detection kit (Becton Dickinson Biosciences, Le-Pont-de-Claix, France), 1x10^5 cells in 100 µl 1X binding buffer were stained with 5 µl of Annexin V-FITC and 5 µl Propidium Iodide (PI) in the dark for 15 min at room temperature (RT). 400 µl of 1X binding buffer was added before fluorescence-activated cell sorted (FACS) analysis. For cell cycle analysis 1x10^6 cells were washed with cold PBS1X and resuspended in 1ml EtOH 70% and kept on ice for at least 10 min. Cells were then centrifuged and the pellet resuspended in 1ml PBS 1X + RNAse (40 µg) Saint-Quentin Fallavier, France) + Propidium Iodide (18 µl) at room temperature. […]
# Fluorescence was measured using a FACScan flow cytometer (BD Biosciences), and data analysis was performed using CellQuest software (BD Biosciences).
# It was next determined whether the inhibition of thymidine incorporation by B-cells reflected cell cycle block and/or apoptosis. […] The respective percentages of hypodiploid (apoptotic) cells, and of cells in G0-G1, S and G2-M cell cycle phase, and finally of hyperdiploid cells were evaluated (M1 to M4 populations respectively in figure 3a). […]
# [2] = tested on: P-stat3; assay: Stat3 phosphorylation (Phospho-Y705 stat3) by western blot and immunostaining in CLL cells
# Protocol: For pervanadate experiments, fresh CLL cells were preincubated or not with IL2 overnight, then incubated or not with pervanadate 25 µM during 5 min and stimulated or not with IL24 for 10 min and lysed as previously described. Blots were hybridyzed with anti phospho-Tyr 705-STAT3 (B-7) MAb (Tebu-bio), dehybridyzed and reblotted with anti STAT3 MAb (BD Transduction Laboratories).
# Stat3 was strongly and stably phosphorylated in cells incubated overnight with IL2 as evidenced by hybridization with an anti Phospho-Y705 stat3 MAb. In contrast, phospho(P)-stat5 disappeared and total stat5 diminished in the cytosol of cells incubated overnight with IL2, presumably due to dimerization and translocation to the nucleus (Paukku et al. Cytokine Growth Factor Rev. 2004. 6:435-55).
# Cells were therefore incubated or not for 5 min with […] pervanadate (PV), an inhibitor of protein tyrosine phosphatase activity (Heffetz and Bushkin H. J Biol Chem. 1990. 265:2896-902) and stimulated 10 min with IL24 on cells preincubated or not with IL2. Cytospin and western blot experiments were performed.
# Troglitazone (TG) is an activator of protein-tyrosine phosphatase (PTP)-1B that reduced P-Y705-stat3 and promoted apoptosis in human primary gliomas (Akasaki et al. J Biol Chem. 2005. 281:6165-74). TG was therefore used to determine if it is able to stimulate p53 expression and apoptosis in CLL. […]
# [3] = tested on: CLL cells; assay: CLL cell survival in culture (trypan blue cell count, cell cycle analysis); details: culture for > 30 min
# Protocol: • Figure 1. rIL24 protects CLL B-cells from death in culture. • a) CLL cells (2x10^6/ml) were cultured in complete medium (•) or with 100 ng/ml rIL24 (▲) every 7 days and cells counted using trypan blue exclusion. % living cells was calculated in each sample (mean ± SD, n=8). b) Cell scatter, Apoptosis shown by Apo 2.7-PE staining, and cell cycle shown by PI staining from one representative sample (CLL 70) at day 21. M1: hypodiploid (apoptotic cells) M2: cells into G0/G1, M3: cells into S+G2+M, M4: hyperdiploid cells. • Figure 2. rIL24 inhibits thymidine incorporation in activated CLL cells. • a) IL24 was added to IL2-cultured cells as in figure 1, one day before (d-1) at the same time (d0) or one day after (d=1) IL2. b) IL24 was added to CLL cells cultured for 24 h with IL2, IL2+CD40-Ligand or anti-IgM+CD40-Ligand. Tymidine (0.5 mCi/ml) was added at day 3 for 15 h. […] Mean ± SD (n=8) of the M1 to M4 populations calculated as in (a) from CLL cells cultured with IL2 (hatched histogram) or IL2 then IL24 (white histogram). […] RNA was extracted at day 3, reverse-transcribed, amplified and analyzed by real-time PCR. […]
molecule,measurement,setting,value
"Cc1ccc(C(=O)Cn2c3c(sc2=N)CCCC3)cc1 [Pft-a, Pifithrin]",cells in S/G2/M,[1],6.44 ± 2.2%
"Cc1c(C)c2c(c(C)c1O)CCC(C)(COc1ccc(CC3SC(=O)NC3=O)cc1)O2 (centres unmarked) [TG, Troglitazone]",total Stat3 expression,[2]; IL2-cultured CLL cells,no effect
"COC(=O)C[C@H](NC(=O)[C@H](C)NC(=O)[C@@H](NC(=O)OCc1ccccc1)C(C)C)C(=O)CF [zvad, ZVAD-fmk] (Cbz-Val-Ala-Asp(OMe)-CH2F)",cells in S/G2/M,[1],4.8 ± 1.77%
pervanadate [PV],IL24-mediated inhibition of P-Stat3,"[2]; 5 min with 25 µM pervanadate, then 10 min IL24",antagonized
same,toxicity in culture,[3],too toxic
